What was measured:
Assay type in all cases: in vivo
[1] = test system: Solanum nigrum (SOLNI); experiment: Pre-emergence herbicidal glasshouse test; conditions: pre-emergence (sprayed after one day cultivation), evaluated after 13 days, 100=total damage to plant, 0=no damage to plant; for pest or weed control at 1000 g/ha: Solanum nigrum, 312 h, read-out: PRE Application SOLNI, damage to plant; for PRE Application SOLNI, damage to plant: 1000 g/ha
Method in brief: (§1)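 Seeds were sown in standard soil in pots and sprayed 1 day after sowing (pre-emergence) or after 8 days' cultivation (post-emergence). Compounds were applied at 1000 g/ha in acetone/water (50:50) with 0.5% Tween 20. Plants were kept at 24/16 °C day/night, 14 h light, 65% humidity, and damage was scored after 13 days (0 = none, 100 = total).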

[2] = test system: Amaranthus retoflexus (AMARE); experiment: Pre-emergence herbicidal glasshouse test; conditions: pre-emergence (sprayed after one day cultivation), evaluated after 13 days, 100=total damage to plant, 0=no damage to plant; for pest or weed control at 1000 g/ha: Amaranthus retroflexus, 312 h, read-out: PRE Application AMARE, damage to plant; for PRE Application AMARE, damage to plant: 1000 g/ha
Method in brief: as §1

[3] = test system: Alopecurus myosuroides (ALOMY); experiment: Pre-emergence herbicidal glasshouse test; conditions: pre-emergence (sprayed after one day cultivation), evaluated after 13 days, 100=total damage to plant, 0=no damage to plant; for pest or weed control at 1000 g/ha: Alopecurus myosuroides, 312 h, read-out: PRE Application ALOMY, damage to plant; for PRE Application ALOMY, damage to plant: 1000 g/ha
Method in brief: as §1

[4] = test system: Setaria faberi (SETFA); experiment: Pre-emergence herbicidal glasshouse test; conditions: pre-emergence (sprayed after one day cultivation), evaluated after 13 days, 100=total damage to plant, 0=no damage to plant; for pest or weed control at 1000 g/ha: Setaria faberi, 312 h, read-out: PRE Application SETFA, damage to plant; for PRE Application SETFA, damage to plant: 1000 g/ha
Method in brief: as §1

[5] = test system: Echinochloa crus-galli (ECHCG); experiment: Pre-emergence herbicidal glasshouse test; conditions: pre-emergence (sprayed after one day cultivation), evaluated after 13 days, 100=total damage to plant, 0=no damage to plant; for pest or weed control at 1000 g/ha: Echinochloa crus-galli, 312 h, read-out: PRE Application ECHCG, damage to plant; for PRE Application ECHCG, damage to plant: 1000 g/ha
Method in brief: (§2)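 Sow in standard soil; grow 1 d (pre-emergence) or 8 d (post-emergence) at 24/16 °C, 14 h light, 65% humidity. Spray test compound at 1000 g/ha in aqueous acetone (50:50) with 0.5% Tween 20. Grow on under the same conditions and score injury (0–100) after 13 days.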

[6] = test system: Solanum nigrum (SOLNI); experiment: Post-emergence herbicidal glasshouse test; conditions: post-emergence (sprayed after 8 days cultivation), evaluated after 13 days, 100=total damage to plant, 0=no damage to plant; for pest or weed control at 1000 g/ha: Solanum nigrum, 312 h, read-out: POST Application SOLNI, damage to plant; for POST Application SOLNI, damage to plant: 1000 g/ha
Method in brief: as §1

[7] = test system: Amaranthus retoflexus (AMARE); experiment: Post-emergence herbicidal glasshouse test; conditions: post-emergence (sprayed after 8 days cultivation), evaluated after 13 days, 100=total damage to plant, 0=no damage to plant; for pest or weed control at 1000 g/ha: Amaranthus retroflexus, 312 h, read-out: POST Application AMARE, damage to plant; for POST Application AMARE, damage to plant: 1000 g/ha
Method in brief: as §1

[8] = test system: Alopecurus myosuroides (ALOMY); experiment: Post-emergence herbicidal glasshouse test; conditions: post-emergence (sprayed after 8 days cultivation), evaluated after 13 days, 100=total damage to plant, 0=no damage to plant; for pest or weed control at 1000 g/ha: Alopecurus myosuroides, 312 h, read-out: POST Application ALOMY, damage to plant; for POST Application ALOMY, damage to plant: 1000 g/ha
Method in brief: as §1

[9] = test system: Setaria faberi (SETFA); experiment: Post-emergence herbicidal glasshouse test; conditions: post-emergence (sprayed after 8 days cultivation), evaluated after 13 days, 100=total damage to plant, 0=no damage to plant; for pest or weed control at 1000 g/ha: Setaria faberi, 312 h, read-out: POST Application SETFA, damage to plant; for POST Application SETFA, damage to plant: 1000 g/ha
Method in brief: as §1

[10] = test system: Echinochloa crus-galli (ECHCG); experiment: Post-emergence herbicidal glasshouse test; conditions: post-emergence (sprayed after 8 days cultivation), evaluated after 13 days, 100=total damage to plant, 0=no damage to plant; for pest or weed control at 1000 g/ha: Echinochloa crus-galli, 312 h, read-out: POST Application ECHCG, damage to plant; for POST Application ECHCG, damage to plant: 1000 g/ha
Method in brief: as §2

SMILES | pest or weed control at 1000 g/ha [1] [%] | pest or weed control at 1000 g/ha [2] [%] | pest or weed control at 1000 g/ha [3] [%] | pest or weed control at 1000 g/ha [4] [%] | pest or weed control at 1000 g/ha [5] [%] | pest or weed control at 1000 g/ha [6] [%] | pest or weed control at 1000 g/ha [7] [%] | pest or weed control at 1000 g/ha [8] [%] | pest or weed control at 1000 g/ha [9] [%] | pest or weed control at 1000 g/ha [10] [%] | PRE Application SOLNI, damage to plant [1] | PRE Application AMARE, damage to plant [2] | PRE Application ALOMY, damage to plant [3] | PRE Application SETFA, damage to plant [4] | PRE Application ECHCG, damage to plant [5] | POST Application SOLNI, damage to plant [6] | POST Application AMARE, damage to plant [7] | POST Application ALOMY, damage to plant [8] | POST Application SETFA, damage to plant [9] | POST Application ECHCG, damage to plant [10]
CS(=O)(=O)c1ccc2cc(C(=O)C3C(=O)CCCC3=O)c(C(F)(F)F)nc2n1 [Compound 1.20] | 100 | 30 | 20 | 80 | 70 | 100 | 80 | 20 | 100 | 90 |  |  |  |  |  |  |  |  |  | 
CCN(C)c1nc2nc(C(F)(F)F)c(C(=O)C3C(=O)CCCC3=O)cc2cc1F [Compound 1.81, 2-[6-fluoro-7-(N-methylethylamino)-2-trifluoromethyl-[1,8]-naphthyridine-3-carbony]-cyclohexane-1,3-dione] |  |  |  |  |  |  |  |  |  |  | 100 | 100 | 70 | 100 | 100 | 80 | 90 | 70 | 80 | 90
O=C1CCCC(=O)C1C(=O)c1cc2ccc(=O)n(CC(F)F)c2nc1C(F)(F)F [Compound 2.4, 2-{8-(2,2-difluoroethyl)-7-oxo-7,8-dihydro-2-trifluoromethyl-[1,8]-naphthyridine-3-carbony}-cyclohexane-1,3-dione] |  |  |  |  |  |  |  |  |  |  | 90 | 90 | 40 | 70 | 90 | 90 | 60 | 60 | 80 | 70
COC(C)c1ccc2cc(C(=O)C3C(=O)CCCC3=O)c(C(F)(F)F)nc2n1 (stereo not shown) [Compound 1.63, 2-[7-(1-methoxyethyl)-2-trifluoromethyl-[1,8]-naphthyridine-3-carbony]-cyclohexane-1,3-dione] |  |  |  |  |  |  |  |  |  |  | 100 | 100 | 70 | 100 | 100 | 80 | 100 | 90 | 90 | 90
CCOC(F)(F)c1nc2nc(C)c(F)cc2cc1C(=O)C1C(=O)CCCC1=O [Compound 1.102, 2-[2-(Ethoxydifluoromethyl)-6-fluoro-7-methyl-[1,8]-naphthyridine-3-carbonyl]-cyclohexane-1,3-dione] | 100 | 100 | 30 | 100 | 90 | 60 | 90 | 60 | 80 | 80 |  |  |  |  |  |  |  |  |  | 
CCc1ccc2cc(C(=O)C3C(=O)CCCC3=O)c(C(F)(F)F)nc2n1 [Compound 1.3, 2-[7-ethyl-trifluoromethyl-[1,8]-naphthyridine-3-carbony]-cyclohexane-1,3-dione] |  |  |  |  |  |  |  |  |  |  | 100 | 90 | 80 | 80 | 100 | 90 | 100 | 70 | 90 | 80
CCNc1nc2nc(C(F)(F)F)c(C(=O)C3C(=O)CCCC3=O)cc2cc1F [Compound 1.84] | 100 | 100 | 60 | 100 | 100 | 80 | 80 | 70 | 80 | 80 |  |  |  |  |  |  |  |  |  | 
CCOc1nc2nc(C(F)(F)F)c(C(=O)C3C(=O)C4CCC(C4)C3=O)cc2cc1F (stereo not shown) [Compound 3.4] | 100 | 100 | 70 | 100 | 100 | 90 | 70 | 70 | 90 | 80 |  |  |  |  |  |  |  |  |  | 
O=C1CCCC(=O)C1C(=O)c1cc2ccc(=O)n(Cc3ccccc3)c2nc1C(F)(F)F [Compound 2.20, 2-(8-Benzyl-7-oxo-7,8-dihydro-2-trifluoromethyl-[1,8]-naphthyridine-3-carbony)-cyclohexane-1,3-dione] |  |  |  |  |  |  |  |  |  |  | 100 | 100 | 100 | 100 | 100 | 80 | 80 | 70 | 70 | 70
C/C=C/c1nc2nc(C(F)(F)F)c(C(=O)C3C(=O)CCCC3=O)cc2cc1F [Compound 1.72, 2-(6-fluoro-7-[(E)(prop-1-enyl)]-2-trifluoromethyl-[1,8]-naphthyridine-3-carbony)-cyclohexane-1,3-dione] |  |  |  |  |  |  |  |  |  |  | 90 | 60 | 30 | 90 | 90 | 60 | 70 | 50 | 80 | 70
COCc1nc2ncc(F)cc2cc1C(=O)C1C(=O)CCCC1=O [Compound 1.74, 2-[6-fluoro-2-methoxymethyl-[1,8]-naphthyridine-3-carbony]-cyclohexane-1,3-dione] |  |  |  |  |  |  |  |  |  |  | 100 | 100 | 70 | 100 | 100 | 80 | 90 | 40 | 80 | 80
O=C(c1cc2ccc(CCF)nc2nc1C(F)(F)F)C1C(=O)C2CCC(C2)C1=O (stereo not shown) [Compound 3.10] |  |  |  |  |  |  |  |  |  |  | 100 | 70 | 70 | 90 | 100 | 90 | 100 | 80 | 90 | 90
O=C1CCCC(=O)C1C(=O)c1cc2ccc(=O)n(Cc3ccccc3F)c2nc1C(F)(F)F [Compound 2.12] |  |  |  |  |  |  |  |  |  |  | 90 | 60 | 80 | 90 | 90 | 100 | 70 | 70 | 90 | 70

Source: patent US8461083B2, “Herbicidal compounds” (Syngenta Limited, priority 2008, dated 2013)
